Laboratory results as given in ChEMBL document CHEMBL1201862, “PubChem BioAssay data set” (2004).
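Tested at 5 concentrations; 48 h exposure; 96-well plates; endpoints linearly interpolated, else capped at highest concentration. The concentration for 50% growth inhibition is given as GI50.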 The source made the active and inactive calls. Rule as the data show it: active = GI50 up to about 1.1 µM and inactive = higher.

What was measured:
Test in all cases: NCI tumour cell line growth inhibition, 48 h
[1] = tested on: MDA-N
[2] = tested on: MCF7
[3] = tested on: ACHN
[4] = tested on: SW-620
[5] = tested on: 786-0
[6] = tested on: HT-29
[7] = tested on: HCT-116
[8] = tested on: HCT-15
[9] = tested on: Malme-3M
[10] = tested on: Hs-578T
[11] = tested on: SNB-75
[12] = tested on: A498
[13] = tested on: SK-MEL-2
[14] = tested on: CCRF-CEM
[15] = tested on: OVCAR-8
[16] = tested on: OVCAR-3
[17] = tested on: IGROV-1
[18] = tested on: HCC 2998
[19] = tested on: T47D
[20] = tested on: RXF 393

Compound | GI50 [1] | GI50 [2] | GI50 [3] | GI50 [4] | GI50 [5] | GI50 [6] | GI50 [7] | GI50 [8] | GI50 [9] | GI50 [10] | GI50 [11] | GI50 [12] | GI50 [13] | GI50 [14] | GI50 [15] | GI50 [16] | GI50 [17] | GI50 [18] | GI50 [19] | GI50 [20]
O=S1OC[C@H](CCCl)O1 (stereo not given in full) | > 100 µM (inactive) | > 100 µM (inactive) | > 100 µM (inactive) | > 100 µM (inactive) | > 100 µM (inactive) | > 100 µM (inactive) | > 100 µM (inactive) | > 100 µM | > 100 µM (inactive) | > 100 µM (inactive) | > 100 µM (inactive) | > 100 µM (inactive) | > 100 µM (inactive) | > 100 µM (inactive) | > 100 µM (inactive) | > 100 µM (inactive) | > 100 µM (inactive) | > 100 µM (inactive) | > 100 µM (inactive) | –
c1ccc(CN2CCC(CNc3ncnc4ccccc34)C2)cc1 (stereo not given) | 47.1 µM (inactive) | 50.2 µM (inactive) | > 100 µM (inactive) | > 100 µM (inactive) | > 100 µM (inactive) | 33.1 µM (inactive) | 40.5 µM (inactive) | > 100 µM | 19.5 µM (inactive) | 58.5 µM (inactive) | > 100 µM (inactive) | 41.3 µM (inactive) | 38.6 µM (inactive) | 41 µM (inactive) | 83 µM (inactive) | > 100 µM (inactive) | > 100 µM (inactive) | – | 93.5 µM (inactive) | > 100 µM (inactive)
CN(C)/N=C1/CCC(C(F)(F)F)(C(F)(F)F)O1 | 48.3 µM (inactive) | – | 35.6 µM (inactive) | 40.6 µM (inactive) | 29.4 µM (inactive) | 41.8 µM (inactive) | 29.7 µM (inactive) | 41.4 µM | 23.3 µM (inactive) | 39.2 µM (inactive) | 26.3 µM (inactive) | 21.4 µM (inactive) | 20.7 µM (inactive) | 30.2 µM (inactive) | – | 18.5 µM (inactive) | 31.2 µM (inactive) | 30.6 µM (inactive) | 33.2 µM (inactive) | 32.6 µM (inactive)
CC(=O)OCCC[C@@H]1C(=C(C)C)CCC2[C@@]1(C)CC[C@@]1(C)C[C@](C)(CCC=C(C)C)CC[C@]21C (stereo not given in full) | > 100 µM (inactive) | > 100 µM (inactive) | > 100 µM (inactive) | > 100 µM (inactive) | > 100 µM (inactive) | > 100 µM (inactive) | > 100 µM (inactive) | > 100 µM | > 100 µM (inactive) | > 100 µM (inactive) | 7.94 µM (inactive) | > 100 µM (inactive) | – | > 100 µM (inactive) | > 100 µM (inactive) | > 100 µM (inactive) | > 100 µM (inactive) | > 100 µM (inactive) | > 100 µM (inactive) | –
CC(C)OC(=O)C1(C(C)C)CCc2ccc(C(=O)CCC(=O)O)cc21 (stereo not given) | > 100 µM (inactive) | > 100 µM (inactive) | > 100 µM (inactive) | > 100 µM (inactive) | > 100 µM (inactive) | > 100 µM (inactive) | > 100 µM (inactive) | > 100 µM | > 100 µM (inactive) | > 100 µM (inactive) | > 100 µM (inactive) | – | > 100 µM (inactive) | > 100 µM (inactive) | > 100 µM (inactive) | – | > 100 µM (inactive) | > 100 µM (inactive) | > 100 µM (inactive) | > 100 µM (inactive)
CC1=NNC(=O)C1C1CC(c2c[nH]c3ccccc23)=NN(C(N)=O)C1=O (stereo not given) | 68.7 µM (inactive) | – | 97.9 µM (inactive) | 92.9 µM (inactive) | > 100 µM (inactive) | > 100 µM (inactive) | 83.2 µM (inactive) | 37.8 µM | > 100 µM (inactive) | 85.1 µM (inactive) | 87.3 µM (inactive) | > 100 µM (inactive) | > 100 µM (inactive) | 31 µM (inactive) | 98.6 µM (inactive) | > 100 µM (inactive) | 4.4 µM (inactive) | – | 61 µM (inactive) | 52.1 µM (inactive)
CC(C)C(/N=C/c1ccccc1O)C(=O)O (stereo not given) | > 100 µM (inactive) | > 100 µM (inactive) | > 100 µM (inactive) | > 100 µM (inactive) | > 100 µM (inactive) | > 100 µM (inactive) | > 100 µM (inactive) | > 100 µM | 55.3 µM (inactive) | 59.2 µM (inactive) | – | > 100 µM (inactive) | 20.6 µM (inactive) | > 100 µM (inactive) | > 100 µM (inactive) | > 100 µM (inactive) | > 100 µM (inactive) | – | > 100 µM (inactive) | –
N#Cc1ccc(N2CCOCC2)cc1 | > 100 µM (inactive) | > 100 µM (inactive) | > 100 µM (inactive) | > 100 µM (inactive) | > 100 µM (inactive) | > 100 µM (inactive) | > 100 µM (inactive) | > 100 µM | – | > 100 µM (inactive) | > 100 µM (inactive) | 42.8 µM (inactive) | > 100 µM (inactive) | 0.975 µM (active) | > 100 µM (inactive) | > 100 µM (inactive) | > 100 µM (inactive) | – | > 100 µM (inactive) | > 100 µM (inactive)
